How the values were obtained:
[1] = Foaming abilities, 1% compound solutions shaken by hand; format: physicochemical; design: key to FOAM: −: no foam formation; +: low foam formation; ++: moderate foam formation; +++: strong foam formation
Method: Foaming abilities were evaluated at room temperature by shaking 1% compound solutions (2 ml) of pH 3, 7, and 12 by hand for 10 s. The pH of each solution was assessed with a pH meter at room temperature. […] The foam heights at the initial time were compared to one another after which the foaming abilities were classified according to no foam formation (−), low foam formation (+), moderate foam formation (++), and strong foam formation (+++).

[2] = Solubility in water (excess of compound in 4 ml demi water); format: physicochemical; settings: for Solubility: Table E5.2, water; for Solubility (%): Table E8
Method: Solubility is preferably solubility in aqueous solution, more preferably solubility in water, most preferably solubility in demineralised water. A skilled person knows how to assess such solubility.
Solubility in water was determined by preparing mixtures of an excess of compound dispersed in 4 ml demi water using a vortex at maximum speed for 1 min. […] 1 ml of the mixture was concentrated in vacuo to yield a solid. The mass of the solid was determined in mg to calculate the solubility in percentage by dividing by ten.

[3] = Solubility in media other than water (methanol, ethyl acetate, oils, 3:1 EtOH/H2O); format: physicochemical; settings: for SOLUBILITY (H2O): medium named in the cell instead of water: Table E1, cell names the medium in which the compound is soluble; for Solubility in 3:1 EtOH/H2O: 3:1 ethanol water ratio
Zein = Zein solubilisation (skin irritation potential); settings: SDS set as 100
Method: Zein solubilisation was measured to determine the irritation of the surfactants. Zein is a simple protein found in corn. It is a very simple mimic of skin protein, the more solubilised by your material the harsher the potential to irritate and dry the skin. This method is a quick screen and provides indicative data. The procedure is 1) Weight 2-2.5 ml Eppendorf's on a 4 dp balance. 2) Weight out as accurately as possible 70 mg of Zein. 3) Add to the Eppendorf and reweigh. 4) Make your surfactant dilutions. 5) Add 1 ml of the surfactant dilution to the Eppendorf. 6) Place this on a rotary mixer for 20 mins at 20 rpm at RT. 7) Remove and centrifuge for 4 mins at highest speed available on a micro centrifuge 8) Discard the supernatant making sure as much of it possible is removed. 9) Repeat with water, centrifuge and discard supernatant. 10) With the Eppendorf lid open, place at 50° C. overnight to dry (48 hours required). 11) Re-weigh the next day. 12) Calculate the amount of Zein solubilised. The obtained data allows comparison of surfactants and their harshness to skin. Decisions for in vivo testing can be based on good Zein results.
The skin irritation potential of the surfactants was investigated using zein solubilisation, which is a commonly known assay. Zein is a very simple mimic of skin protein. The more zein is solubilized by the surfactant the harsher the potential to irritate and dry the human skin. […] The surfactants were measured at different pH values, a pH of 4-5, 7 and at their original pH as is.

[4] = Foaming power and stability, Ultra-Turrax, 0.4% aq. surfactant; format: physicochemical; settings: for Foamability (mL) after (min) 1 / Foamability (mL) after (min) 5 / Foamability (mL) after (min) 10: Table E5.2; for Foamability (mL) after (min) 1: foam volume after 1 min; for Foamability (mL) after (min) 5: foam volume after 5 min; for Foamability (mL) after (min) 10: foam volume after 10 min; for Foamability 1 min / Foamability 5 min / Foamability 30 min: Table E8; for Foamability 1 min: after 1 min; for Foamability 5 min: after 5 min; for Foamability 30 min: after 30 min
Method: Foaming power was also tested at room temperature with 5 mL of 0.4% aq. surfactant (20 mg) solution in a 50 mL measuring cylinder. After performing the Ultra-Turrax (a registered trademark for a high-performance dispersing instrument) for 20 seconds (8000 rpm), the initial height of the foam was measured for foam height. (volume in mL). Every time step of, 1, 3, 5, 10, 30, 60 minutes was noted. In addition, after 24 hours the stability was checked. Particularly, foaming power and stability of the surfactants were performed using an IKA Ultra-Turrax T25 with an 18 G dispersing element. At room temperature, an aqueous solution of 5 mL 0.4% surfactant in a 50 mL measuring cylinder (2.20 cm diameter) was mixed with the Ultra-Turrax for 20 seconds at 8000 rpm. The foam height (volume in mL) was denoted for 0, 1, 3, 5, 10, 30, 60 min and 24 hours. In addition, after 24 hours the stability was checked.

[5] = Surface tension measurements, Wilhelmy plate (surface tension, CMC); format: physicochemical
Method: Surface tension measurements were performed with a Biolin Scientific Sigma701 automatic tension meter equipped with a Wilhelmy plate made of platinum (±0.5 mN/m). […] The number of experimental points is related to the compound's/surfactant's solubility and available quantity. All compound/surfactant solutions were allowed to stand 12 h before being measured. The platinum plate was thoroughly cleaned with demi water and flame-dried before each measurement. The CMC of each compound/surfactant was determined at the minimum of a breakpoint of a conventional plot of surface tension versus compound/surfactant concentration. DCMC was obtained by acquiring the surface tension at the CMC. The pC20 value was determined by taking the minus log of the concentration compound/surfactant at a surface tension of 52 mN/m.

[6] = Table E3, N-alkylated compounds
[7] = Table E4, room temperature, pH 7
[8] = Table E6, N-oxide compounds, in Salt form

## CCCCCCCCN(C)C(=O)[C@H](O)[C@@H](O)[C@@H](O)CO [Compound 17, N-methyl-N-octyl-L-arabinonamide]
[1]
  foaming behaviour / foam creation, in words: good foaming behaviour
[1]; Table E3
  FOAM: ++
[2]
  solubility in water, in words: well soluble
[2]; [6]
  SOLUBILITY (H2O): Soluble
[3]
  solubility in methanol, in words: well soluble

## CCCCCCCCCCNC(=O)[C@H](O)[C@@H](O)[C@@H](O)CO [Compound 04, 1-(N-Decyl)-L-arabinonamide]
[1]; Table E1
  FOAM: −
[2]
  solubility in water, in words: poorly soluble
[3]
  SOLUBILITY (H2O): medium named in the cell instead of water: In oil
  solubility in diverse oils, in words: soluble

## CCCCCCCCNC(=O)[C@H](O)[C@@H](O)[C@@H](O)CO [Compound 03, 1-(N-octyl)-L-arabinonamide]
[1]; Table E1
  FOAM: −
[2]
  solubility in water, in words: poorly soluble
[3]
  Solubility in 3:1 EtOH/H2O: soluble
  solubility in diverse oils, in words: soluble
[3]; in 3:1 ethanol/water
  SOLUBILITY (H2O): medium named in the cell instead of water: 3:1 EtOH/H2O &
[3]; in oil
  SOLUBILITY (H2O): medium named in the cell instead of water: in oil

## CCCCCCCCN(C)C(=O)[C@H](O)[C@@H](O)[C@@H](O)[C@H](O)C(=O)O [Compound 20]
[1]
  foaming behaviour / foam creation, in words: good foaming behaviour
[1]; Table E3
  FOAM: ++
[2]
  solubility in water, in words: well soluble
[2]; [6]
  SOLUBILITY (H2O): Soluble
[3]
  solubility in methanol, in words: well soluble

## sodium laureth sulfate [SLES, reference compound]
[1]; Table E7
  FOAM: ++
Zein; pH 7
  zein score / skin irritation potential value: 49
Zein; pH11
  skin irritation potential value (zein): > 49
[2]
  Solubility: 28%
  Solubility (%): 28%
[2]; Table E7, commercially available surfactants
  SOLUBILITY (H2O): Yes
[4]
  Foamability (mL) after (min) 1: 4 mL
  Foamability (mL) after (min) 5: 4 mL
  Foamability (mL) after (min) 10: 3 mL
  Foamability 1 min: 4 mL
  Foamability 5 min: 4 mL
  Foamability 30 min: 3 mL
[5]
  concentration at which the surface tension is reached: 0.02%
[5]; Table E5.2
  CMC (%): 0.2%
  Surface tension (nM/m): 33.8 mN/m
[5]; Table E7
  CMC (%): 0.2%
  SURFACE TENSION: 36.5 mN/m
[5]; Table E8
  CMC (%): 0.2%
  Surface tension (nM/m): 33.8 mN/m

## CCCCCCCCCCCCN(C)C(=O)[C@H](O)[C@@H](O)[C@@H](O)CO [Compound 19, N-methyl-N-dodecyl-L-arabinonamide]
[1]; Table E3
  FOAM: ++
[2]
  solubility in water, in words: well soluble
[2]; [6]
  SOLUBILITY (H2O): Soluble
[3]; ethyl acetate
  solubility in ethyl acetate, in words: well soluble
[3]
  solubility in methanol, in words: well soluble

## CCCCCCCCCCCCN(C)C(=O)[C@H](O)[C@@H](O)[C@@H](O)[C@H](O)C(=O)O [Compound 22]
[1]
  foaming behaviour / foam creation, in words: good foaming behaviour
[1]; Table E3
  FOAM: ++
[2]
  solubility in water, in words: well soluble
[2]; [6]
  SOLUBILITY (H2O): Soluble
[3]
  solubility in methanol, in words: well soluble

## CCCCCCN(C)C(=O)[C@H](O)[C@@H](O)[C@@H](O)CO [Compound 18, N-methyl-N-hexyl-L-arabinonamide]
[1]; Table E3
  FOAM: −
[2]
  solubility in water, in words: well soluble
[2]; [6]
  SOLUBILITY (H2O): Soluble
[3]
  solubility in methanol, in words: well soluble

## CCCCCCCCN(C)C[C@H](O)[C@@H](O)[C@@H](O)CO [Compound 24, N-methyl-N-octyl-L-arabinamine]
[1]; Table E4, pH > 7
  FOAM: +
[2]; Table E4
  SOLUBILITY (H2O): 0.9%
[2]
  Solubility: 0.9%
[2]; earlier measurements, initially found
  solubility, earlier measurements: 0.25%
[4]
  Foamability (mL) after (min) 1: 5 mL
  Foamability (mL) after (min) 5: 4.5 mL
  Foamability (mL) after (min) 10: 4 mL
[5]; Table E4
  CMC (%): 0.25%
[5]; [7]
  SURFACE TENSION: 28.7 mN/m
[5]; Table E5.2
  CMC (%): 0.25%
  Surface tension (nM/m): 28.7 mN/m

## CCCCCCNC[C@H](O)[C@@H](O)[C@@H](O)[C@H](O)C(=O)O [Compound 37, N-hexyl-D-galacturonic acid amine, reference compound]
[1]; Table E5, pH not given
  FOAM: −
[2]; Table E5
  SOLUBILITY (H2O): 14%
[2]
  Solubility: 14%
[3]
  Solubility in 3:1 EtOH/H2O: (Poorly in 3:1

## CCCCCCCCCC[N+](C)([O-])C[C@H](O)[C@@H](O)[C@@H](O)[C@H](O)C(=O)O (stereo partly shown) [Compound 42b]
[1]; Table E6, in Salt form
  FOAM: +++
[2]; [8]
  SOLUBILITY (H2O): 8%
[2]
  Solubility (%): 8%
[4]
  Foamability 1 min: 6 mL
  Foamability 5 min: 6 mL
  Foamability 30 min: 5 mL
[5]; Table E6, in Salt form
  CMC (%): 0.08%
  SURFACE TENSION: 25.17 mN/m
[5]; Table E8
  CMC (%): 0.08%
  Surface tension (nM/m): 25.17 mN/m

## CCCCCCCCCCCCN(C)C[C@H](O)[C@@H](O)[C@@H](O)CO [Compound 25, N-methyl-N-dodecyl-L-arabinamine]
[1]; Table E4, pH > 7
  FOAM: ++
[2]; Table E4
  SOLUBILITY (H2O): 0.06%
[2]
  Solubility: 0.06%
[4]
  Foamability (mL) after (min) 1: 5 mL
  Foamability (mL) after (min) 5: 5 mL
  Foamability (mL) after (min) 10: 4 mL
[5]; Table E4
  CMC (%): 0.1%
[5]; [7]
  SURFACE TENSION: 26.2 mN/m
[5]; Table E5.2
  CMC (%): 0.1%
  Surface tension (nM/m): 26.2 mN/m

## CCCCCCCC[N+](C)([O-])C[C@H](O)[C@@H](O)[C@@H](O)[C@H](O)C(=O)O (stereo partly drawn) [Compound 42, N-methyl-N-octyl-D-galacturonic acid amine oxide]
[1]; Table E6, in Salt form
  FOAM: +++
[2]; [8]
  SOLUBILITY (H2O): 10%
[2]
  Solubility (%): 10%
[4]
  Foamability 1 min: 6 mL
  Foamability 5 min: 6 mL
  Foamability 30 min: 2 mL
[5]; Table E6, in Salt form
  CMC (%): 0.65%
  SURFACE TENSION: 42.89 mN/m
[5]; Table E8
  CMC (%): 0.65%
  Surface tension (nM/m): 42.89 mN/m

## CCCCCC[N+](C)([O-])C[C@H](O)[C@@H](O)[C@@H](O)CO (stereo partly drawn) [Compound 38, N-methylhexyl-L-arabinonamine oxide]
[1]; Table E6, in Salt form
  FOAM: −
[2]; [8]
  SOLUBILITY (H2O): 19%
[2]
  Solubility (%): 19%
[4]
  Foamability 1 min: 0.5 mL
  Foamability 5 min: 0 mL
  Foamability 30 min: 0 mL
[5]; Table E6, in Salt form
  CMC (%): 1.60%
  SURFACE TENSION: 49.275 mN/m
[5]; Table E8
  CMC (%): 1.30%
  Surface tension (nM/m): 53.59 mN/m

## CCCCCC[N+](C)([O-])C[C@H](O)[C@@H](O)[C@@H](O)[C@H](O)C(=O)O (stereo partly drawn) [Compound 41, N-methyl-N-hexyl-D-galacturonic acid amine oxide]
[1]; Table E6, in Salt form
  FOAM: −
[2]; [8]
  SOLUBILITY (H2O): 17%
[2]
  Solubility (%): 17%
[4]
  Foamability 1 min: 0.5 mL
  Foamability 5 min: 0 mL
  Foamability 30 min: 0 mL
[5]; Table E6, in Salt form
  CMC (%): 2.58%
  SURFACE TENSION: 37.727 mN/m
[5]; Table E8
  CMC (%): 2.60%
  Surface tension (nM/m): 42.90 mN/m
